Measurements reported in ChEMBL document CHEMBL3885881, “DrugMatrix”.
“And” between values parts separate entries of the source, which are not always exact repeats. Equal entries are not always repeated.

Organism: Rattus norvegicus
Experiment: DrugMatrix - Regimen: Daily Repeat
Type: toxicity, organism-based, Sprague-Dawley
Set-up: regimen Daily Repeat, gender Male, age 6-8 weeks
Settings: in vivo, ip, route intraperitoneal, vehicle 100 % SALINE; for ABSOLUTE BASOPHIL / ABSOLUTE LYMPHOCYTE / ABSOLUTE MONOCYTE / ABSOLUTE SEGMENTED NEUTROPHIL / BASOPHIL / EOSINOPHIL / ERYTHROCYTE COUNT / HEMATOCRIT / HEMOGLOBIN / LEUKOCYTE COUNT / LYMPHOCYTE / MEAN CORPUSCULAR HEMOGLOBIN / MEAN CORPUSCULAR HEMOGLOBIN CONCENTRATION / MEAN CORPUSCULAR VOLUME / MONOCYTE / NEUTROPHIL / NUCLEATED RED BLOOD CELLS / PLATELET COUNT / ABSOLUTE EOSINOPHIL: tissue Blood; for ALANINE AMINOTRANSFERASE / ALBUMIN / ALKALINE PHOSPHATASE / ASPARTATE AMINOTRANSFERASE / BLOOD UREA NITROGEN / CARBON DIOXIDE / CHLORIDE / CHOLESTEROL / CREATINE PHOSPHOKINASE / CREATININE / GLUCOSE / LACTATE DEHYDROGENASE / LIPASE / PHOSPHORUS / POTASSIUM / SODIUM / TOTAL BILIRUBIN / TOTAL PROTEIN / URIC ACID: tissue Plasma
[1] = 0 mg/kg, 72 h, dose level Control, time 3 day
[2] = 0 mg/kg, 120 h, dose level Control, time 5 day
[3] = 0 mg/kg, […], dose level Control, time 7 day
[4] = 16 mg/kg, 72 h, dose level Low, time 3 day
[5] = 16 mg/kg, […], dose level Low, time 7 day

## C=CCO [ALLYL ALCOHOL]
[1]
  ABSOLUTE BASOPHIL: 0 CELLS/uL
  ABSOLUTE LYMPHOCYTE: 13949.83 CELLS/uL and 6988.5 CELLS/uL
  ABSOLUTE MONOCYTE: 176.17 CELLS/uL and 88 CELLS/uL
  ABSOLUTE SEGMENTED NEUTROPHIL: 1407.33 CELLS/uL and 1041.83 CELLS/uL
  BASOPHIL: 0%
  EOSINOPHIL: 0% and 0.17%
  ERYTHROCYTE COUNT: 5.29 x10E6/uL and 5.73 x10E6/uL
  HEMATOCRIT: 33.5% and 35.87%
  HEMOGLOBIN: 13.47 G/DL and 13.27 G/DL
  LEUKOCYTE COUNT: 15.53 x10E3/uL and 8.13 x10E3/uL
  LYMPHOCYTE: 89.5% and 85.83%
  MEAN CORPUSCULAR HEMOGLOBIN: 25.5 pg and 23.2 pg
  MEAN CORPUSCULAR HEMOGLOBIN CONCENTRATION: 40.27 G/DL and 37 G/DL
  MEAN CORPUSCULAR VOLUME: 63.33 fL and 62.63 fL
  MONOCYTE: 1.17%
  NEUTROPHIL: 9.33% and 12.83%
  NUCLEATED RED BLOOD CELLS: 0 /100WBC
  PLATELET COUNT: 1100 x10E3/uL and 1294.17 x10E3/uL
  ALANINE AMINOTRANSFERASE: 41.5 u/L and 49.17 u/L
  ALBUMIN: 3.78 G/DL and 4.35 G/DL
  ALKALINE PHOSPHATASE: 267.5 u/L and 415.17 u/L
  ASPARTATE AMINOTRANSFERASE: 77.67 u/L and 88.5 u/L
  BLOOD UREA NITROGEN: 13.67 mg/dL and 14.33 mg/dL
  CARBON DIOXIDE: 28.17 mmol/L and 34.83 mmol/L
  CHLORIDE: 100.67 MEQ/L and 98.5 MEQ/L
  CHOLESTEROL: 70.67 mg/dL and 75.83 mg/dL
  CREATINE PHOSPHOKINASE: 341.83 u/L and 271.83 u/L
  CREATININE: 0.15 mg/dL and 0.19 mg/dL
  GLUCOSE: 169 mg/dL and 148.17 mg/dL
  LACTATE DEHYDROGENASE: 138.5 u/L and 166.33 u/L
  LIPASE: 10.33 u/L and 9.2 u/L
  PHOSPHORUS: 9.6 mg/dL and 10.37 mg/dL
  POTASSIUM: 5.69 MEQ/L and 6.16 MEQ/L
  SODIUM: 140.88 MEQ/L and 143.75 MEQ/L
  TOTAL BILIRUBIN: 0.2 mg/dL and 0.18 mg/dL
  TOTAL PROTEIN: 5.95 G/DL and 6.22 G/DL
  URIC ACID: 1.18 mg/dL and 0.92 mg/dL
[2]
  ABSOLUTE BASOPHIL: 0 CELLS/uL
  ABSOLUTE EOSINOPHIL: 9.17 CELLS/uL
  ABSOLUTE LYMPHOCYTE: 6359.17 CELLS/uL
  ABSOLUTE MONOCYTE: 87.33 CELLS/uL
  ABSOLUTE SEGMENTED NEUTROPHIL: 894.33 CELLS/uL
  BASOPHIL: 0%
  EOSINOPHIL: 0.17%
  ERYTHROCYTE COUNT: 5.68 x10E6/uL
  HEMATOCRIT: 35.05%
  HEMOGLOBIN: 13.22 G/DL
  LEUKOCYTE COUNT: 7.35 x10E3/uL
  LYMPHOCYTE: 86.33%
  MEAN CORPUSCULAR HEMOGLOBIN: 23.32 pg
  MEAN CORPUSCULAR HEMOGLOBIN CONCENTRATION: 37.72 G/DL
  MEAN CORPUSCULAR VOLUME: 61.82 fL
  MONOCYTE: 1.17%
  NEUTROPHIL: 12.33%
  NUCLEATED RED BLOOD CELLS: 0 /100WBC
  PLATELET COUNT: 1231 x10E3/uL
  ALANINE AMINOTRANSFERASE: 44.5 u/L
  ALBUMIN: 4.47 G/DL
  ALKALINE PHOSPHATASE: 372.33 u/L
  ASPARTATE AMINOTRANSFERASE: 88.67 u/L
  BLOOD UREA NITROGEN: 14.67 mg/dL
  CARBON DIOXIDE: 35.33 mmol/L
  CHLORIDE: 100.6 MEQ/L
  CHOLESTEROL: 75 mg/dL
  CREATINE PHOSPHOKINASE: 303.83 u/L
  CREATININE: 0.16 mg/dL
  GLUCOSE: 135.83 mg/dL
  LACTATE DEHYDROGENASE: 137.17 u/L
  LIPASE: 9.2 u/L
  PHOSPHORUS: 10.42 mg/dL
  POTASSIUM: 5.9 MEQ/L
  SODIUM: 143.7 MEQ/L
  TOTAL BILIRUBIN: 0.18 mg/dL
  TOTAL PROTEIN: 6.42 G/DL
  URIC ACID: 0.78 mg/dL
[3]
  ABSOLUTE BASOPHIL: 0 CELLS/uL
  ABSOLUTE EOSINOPHIL: 12.33 CELLS/uL
  ABSOLUTE LYMPHOCYTE: 8726.33 CELLS/uL
  ABSOLUTE MONOCYTE: 135.33 CELLS/uL
  ABSOLUTE SEGMENTED NEUTROPHIL: 559.33 CELLS/uL
  BASOPHIL: 0%
  EOSINOPHIL: 0.17%
  ERYTHROCYTE COUNT: 5.5 x10E6/uL
  HEMATOCRIT: 34.02%
  HEMOGLOBIN: 13.12 G/DL
  LEUKOCYTE COUNT: 9.43 x10E3/uL
  LYMPHOCYTE: 92.67%
  MEAN CORPUSCULAR HEMOGLOBIN: 23.85 pg
  MEAN CORPUSCULAR HEMOGLOBIN CONCENTRATION: 38.57 G/DL
  MEAN CORPUSCULAR VOLUME: 61.83 fL
  MONOCYTE: 1.33%
  NEUTROPHIL: 5.83%
  NUCLEATED RED BLOOD CELLS: 0 /100WBC
  PLATELET COUNT: 1308.83 x10E3/uL
  ALANINE AMINOTRANSFERASE: 56 u/L
  ALBUMIN: 3.7 G/DL
  ALKALINE PHOSPHATASE: 281.17 u/L
  ASPARTATE AMINOTRANSFERASE: 78.33 u/L
  BLOOD UREA NITROGEN: 15 mg/dL
  CARBON DIOXIDE: 30.5 mmol/L
  CHLORIDE: 103.33 MEQ/L
  CHOLESTEROL: 63.83 mg/dL
  CREATINE PHOSPHOKINASE: 253.33 u/L
  CREATININE: 0.2 mg/dL
  GLUCOSE: 151.17 mg/dL
  LACTATE DEHYDROGENASE: 89 u/L
  LIPASE: 10.33 u/L
  PHOSPHORUS: 9.7 mg/dL
  POTASSIUM: 5.46 MEQ/L
  SODIUM: 146.28 MEQ/L
  TOTAL BILIRUBIN: 0.12 mg/dL
  TOTAL PROTEIN: 6.07 G/DL
  URIC ACID: 0.65 mg/dL
[4]
  ABSOLUTE BASOPHIL: 0 CELLS/uL
  ABSOLUTE EOSINOPHIL: 0 CELLS/uL
  ABSOLUTE LYMPHOCYTE: 14529.5 CELLS/uL
  ABSOLUTE MONOCYTE: 274 CELLS/uL
  ABSOLUTE SEGMENTED NEUTROPHIL: 1013.17 CELLS/uL
  BASOPHIL: 0%
  EOSINOPHIL: 0%
  ERYTHROCYTE COUNT: 5.55 x10E6/uL
  HEMATOCRIT: 35.25%
  HEMOGLOBIN: 13.98 G/DL
  LEUKOCYTE COUNT: 15.82 x10E3/uL
  LYMPHOCYTE: 91.67%
  MEAN CORPUSCULAR HEMOGLOBIN: 25.2 pg
  MEAN CORPUSCULAR HEMOGLOBIN CONCENTRATION: 39.7 G/DL
  MEAN CORPUSCULAR VOLUME: 63.53 fL
  MONOCYTE: 1.67%
  NEUTROPHIL: 6.67%
  NUCLEATED RED BLOOD CELLS: 0 /100WBC
  PLATELET COUNT: 1167.33 x10E3/uL
  ALANINE AMINOTRANSFERASE: 46.17 u/L
  ALBUMIN: 3.8 G/DL
  ALKALINE PHOSPHATASE: 266.8 u/L
  ASPARTATE AMINOTRANSFERASE: 66.67 u/L
  BLOOD UREA NITROGEN: 13 mg/dL
  CARBON DIOXIDE: 32.5 mmol/L
  CHLORIDE: 100.2 MEQ/L
  CHOLESTEROL: 68.67 mg/dL
  CREATINE PHOSPHOKINASE: 231.17 u/L
  CREATININE: 0.44 mg/dL
  GLUCOSE: 143.67 mg/dL
  LACTATE DEHYDROGENASE: 122.67 u/L
  LIPASE: 8 u/L
  PHOSPHORUS: 8.67 mg/dL
  POTASSIUM: 6.2 MEQ/L
  SODIUM: 141.52 MEQ/L
  TOTAL BILIRUBIN: 0.18 mg/dL
  TOTAL PROTEIN: 5.57 G/DL
  URIC ACID: 1.13 mg/dL
[5]
  ABSOLUTE BASOPHIL: 0 CELLS/uL
  ABSOLUTE EOSINOPHIL: 88.33 CELLS/uL
  ABSOLUTE LYMPHOCYTE: 10357.5 CELLS/uL
  ABSOLUTE MONOCYTE: 213 CELLS/uL
  ABSOLUTE SEGMENTED NEUTROPHIL: 574.5 CELLS/uL
  BASOPHIL: 0%
  EOSINOPHIL: 1%
  ERYTHROCYTE COUNT: 5.67 x10E6/uL
  HEMATOCRIT: 35.32%
  HEMOGLOBIN: 13.55 G/DL
  LEUKOCYTE COUNT: 11.23 x10E3/uL
  LYMPHOCYTE: 91.5%
  MEAN CORPUSCULAR HEMOGLOBIN: 23.88 pg
  MEAN CORPUSCULAR HEMOGLOBIN CONCENTRATION: 38.38 G/DL
  MEAN CORPUSCULAR VOLUME: 62.35 fL
  MONOCYTE: 1.83%
  NEUTROPHIL: 5.67%
  NUCLEATED RED BLOOD CELLS: 0 /100WBC
  PLATELET COUNT: 1370 x10E3/uL
